Laboratory results: paper PMC9792776 (Frontiers in Pharmacology, 2022)
Where two headings read alike, the source gives them in different places.

Columns and labels:
CYP3A4 [1] = target: T1, CYP3A4 (Homo sapiens, UniProt P08684); experiment: Intrinsic clearance in human recombinant CYP3A4
[2] = target: T2, BCRP (breast cancer resistance protein) (Homo sapiens, UniProt Q9UNQ0); experiment: BCRP substrate and in vivo inhibition assessment
T2 sequence (Q9UNQ0 1-655): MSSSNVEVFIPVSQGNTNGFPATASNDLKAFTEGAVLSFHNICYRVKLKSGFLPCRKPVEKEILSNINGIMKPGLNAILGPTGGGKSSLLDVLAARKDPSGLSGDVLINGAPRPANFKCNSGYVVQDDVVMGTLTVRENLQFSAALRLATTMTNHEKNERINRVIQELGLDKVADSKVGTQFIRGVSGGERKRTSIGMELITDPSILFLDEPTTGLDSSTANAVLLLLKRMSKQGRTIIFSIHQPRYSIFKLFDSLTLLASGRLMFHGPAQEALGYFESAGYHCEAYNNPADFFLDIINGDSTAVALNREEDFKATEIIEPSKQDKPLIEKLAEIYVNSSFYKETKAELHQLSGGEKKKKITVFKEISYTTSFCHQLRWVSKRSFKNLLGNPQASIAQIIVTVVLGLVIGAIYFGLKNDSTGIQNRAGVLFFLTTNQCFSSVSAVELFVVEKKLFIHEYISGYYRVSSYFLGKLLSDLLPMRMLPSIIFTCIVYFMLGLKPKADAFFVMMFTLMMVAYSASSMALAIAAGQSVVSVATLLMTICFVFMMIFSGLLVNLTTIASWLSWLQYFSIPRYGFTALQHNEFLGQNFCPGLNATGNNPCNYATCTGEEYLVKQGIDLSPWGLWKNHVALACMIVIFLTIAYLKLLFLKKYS
Text: The effects of transporters expressed on the gut and liver have not been investigated.

MATE2K = MATE2K (Homo sapiens, UniProt Q86VL8); experiment: Transporter substrate/inhibitor assessment, MATE2K; format: in vitro ADME
[3] = Log Po:w (octanol-water partition coefficient); format: physicochemical
Text: TABLE 1 Model development and model parameters. | column: Value

OATP1B3 = target: T3, OATP1B3 (Homo sapiens, UniProt Q9NPD5); experiment: Transporter substrate/inhibitor assessment, OATP1B3; format: in vitro ADME
T3 sequence (Q9NPD5 1-702): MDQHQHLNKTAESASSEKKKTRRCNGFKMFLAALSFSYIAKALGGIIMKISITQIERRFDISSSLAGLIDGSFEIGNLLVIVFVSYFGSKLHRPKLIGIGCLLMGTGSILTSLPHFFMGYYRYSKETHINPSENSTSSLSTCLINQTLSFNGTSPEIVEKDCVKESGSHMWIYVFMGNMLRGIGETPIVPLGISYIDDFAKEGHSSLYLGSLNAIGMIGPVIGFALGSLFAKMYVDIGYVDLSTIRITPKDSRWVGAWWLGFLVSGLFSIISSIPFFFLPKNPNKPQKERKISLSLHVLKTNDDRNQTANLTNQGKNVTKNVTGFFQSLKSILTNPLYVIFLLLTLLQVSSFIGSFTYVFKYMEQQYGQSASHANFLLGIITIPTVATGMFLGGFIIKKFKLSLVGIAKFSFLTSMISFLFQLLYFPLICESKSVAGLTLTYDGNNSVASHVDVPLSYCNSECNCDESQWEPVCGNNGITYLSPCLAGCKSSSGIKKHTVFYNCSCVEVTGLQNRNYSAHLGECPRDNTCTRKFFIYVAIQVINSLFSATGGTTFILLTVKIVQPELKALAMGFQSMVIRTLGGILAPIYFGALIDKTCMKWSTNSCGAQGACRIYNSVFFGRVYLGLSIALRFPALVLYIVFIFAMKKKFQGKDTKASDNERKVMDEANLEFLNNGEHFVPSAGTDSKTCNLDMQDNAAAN

CYP3A4 [4] = target: T1, CYP3A4; settings: recombinant enzyme
[5] = PBPK model parameters optimized or assumed (Simcyp minimal PBPK); parameters: species or system human
Text: The first-order absorption model has different absorption rate constants (ka) and fraction available from dosage form (fa) to simulate absorption processes in fasting and fed states. […] Caco-2 (human colorectal adenocarcinoma) cells are used to model the intestinal epithelial barrier. The Simcyp (Version 19.0, Certara Inc., Sheffield, UK) minimal PBPK, which treats all organs other than the intestine and liver as a single compartment ([Rowland Yeo et al., 2010]), was selected, along with a single adjusting compartment (SAC) distribution model. The SAC is a nonphysiologic compartment that permits adjustment to the drug concentration profile in the systemic compartment ([Ke et al., 2016]).

[6] = Fraction unbound (fu) in human plasma; format: in vitro ADME
CYP3A4 [7] = target: T1, CYP3A4; experiment: Clinical DDI study with itraconazole and rifampicin in healthy American (White) subjects; settings: for Cmax: plasma, oral, Cmax Obs.
Protocol: After a 3-day washout period, they were pretreated with 200 mg of oral itraconazole once daily for 4 days to inhibit CYP3A4 (Days 5–8). […] After a 3-day washout, subjects were pretreated with 600 mg of oral rifampicin once daily for 7 days to induce CYP3A4 (Days 5–11). […] Blood samples were collected immediately before and after drug administration at 0.5, 1, 2, 4, 6, 8, 12, 24, 48, 72, and 96 h.

[8] = Blood/plasma (B/P) ratio in healthy volunteer blood; format: in vitro ADME, human
Text: Besides, the B/P ratio was obtained from healthy volunteer blood, however, in patients with CML, too many myeloid cells become granulocytes (red blood cells, platelets and several white blood cell types). So, red blood cell count might change B/P ratio in CML patients. […] Furthermore, the model simulation for liver cirrhosis patients was not validated by clinical data. We believe that further research is needed on this point.

[9] = Fasting, optimized based on observed data
[10] = Fed, optimized based on observed data
[11] = optimized based on observed data

T1 sequence (P08684 whole entry): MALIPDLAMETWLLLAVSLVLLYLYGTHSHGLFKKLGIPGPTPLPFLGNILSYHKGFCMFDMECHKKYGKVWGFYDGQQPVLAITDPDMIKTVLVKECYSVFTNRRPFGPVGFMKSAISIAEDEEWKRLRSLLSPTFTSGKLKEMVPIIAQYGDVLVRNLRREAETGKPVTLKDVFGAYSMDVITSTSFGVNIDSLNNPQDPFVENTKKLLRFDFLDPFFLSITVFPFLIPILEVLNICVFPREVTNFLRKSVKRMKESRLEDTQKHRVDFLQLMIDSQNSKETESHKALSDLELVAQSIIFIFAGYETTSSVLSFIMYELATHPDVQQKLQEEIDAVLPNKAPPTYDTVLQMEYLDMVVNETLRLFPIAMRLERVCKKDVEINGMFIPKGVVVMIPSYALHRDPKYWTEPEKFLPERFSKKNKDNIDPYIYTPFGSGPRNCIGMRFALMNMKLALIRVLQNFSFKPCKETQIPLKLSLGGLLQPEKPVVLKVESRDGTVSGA
Sequence of MATE2K (Q86VL8 1-566 isoform Q86VL8-3, species assumed): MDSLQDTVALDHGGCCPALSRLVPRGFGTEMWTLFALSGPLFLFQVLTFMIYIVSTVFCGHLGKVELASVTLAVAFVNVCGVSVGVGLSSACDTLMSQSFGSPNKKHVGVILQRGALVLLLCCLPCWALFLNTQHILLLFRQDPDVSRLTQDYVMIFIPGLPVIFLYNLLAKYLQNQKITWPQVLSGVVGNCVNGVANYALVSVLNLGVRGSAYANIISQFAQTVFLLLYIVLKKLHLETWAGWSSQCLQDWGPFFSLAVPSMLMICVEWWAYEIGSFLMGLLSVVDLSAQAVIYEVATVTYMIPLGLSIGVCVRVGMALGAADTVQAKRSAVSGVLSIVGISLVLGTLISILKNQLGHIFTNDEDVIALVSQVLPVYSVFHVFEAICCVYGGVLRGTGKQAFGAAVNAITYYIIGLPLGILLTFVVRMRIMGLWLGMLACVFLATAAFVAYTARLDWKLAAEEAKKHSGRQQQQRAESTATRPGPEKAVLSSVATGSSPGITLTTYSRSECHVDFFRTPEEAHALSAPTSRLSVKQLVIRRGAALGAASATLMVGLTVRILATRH

In the case of `Cc1ccc(C(=O)Nc2ccc(CN3CCN(C)CC3)c(C(F)(F)F)c2)cc1C#Cc1cnc2[nH]ncc2c1` [olverembatinib, Olverembatinib], the “CLint CYP3A4” value (CYP3A4 [1]) was 0.200 µL/min/pmol CYP, the “in vivo inhibition on BCRP” value [2] was “no obvious in vivo inhibition” and the “substrate of BCRP” value [2] was “is a substrate”. For the same compound, the “substrate or inhibitor of MATE2K” value (MATE2K) was “neither a substrate nor inhibitor”, the “Log Po:w” value [3] was 3.6 and the “substrate or inhibitor of OATP1B3” value (OATP1B3) was “neither a substrate nor inhibitor”. The “CLint CYP3A4” value (CYP3A4 [4]) was 0.2 µL/min/pmol CYP, the fa [5, 9] was 0.574 (Fasting) and the ka [5, 9] was 0.213 (Fasting) 1/h. The fa [5, 10] was 0.8 (Fed), the ka [5, 10] was 0.136 (Fed) 1/h and the fraction unbound ([5]; human, microsomal incubation, assumed equal to fu,p, read-out: fu,mic/fu,inc) was 0.0005. The Kp ([5]; human, optimized based on observed data, read-out: Kp Scalar) was 6.01, the “ISEF CYP2C9” value ([5]; optimized based on fmCYP2C9) was 1.2938 and the “ISEF CYP3A4” value ([5]; optimized based on fmCYP3A4) was 0.7761. For the same compound, the SAC kin [5, 11] was 0.0471 h⁻¹, the SAC kout [5, 11] was 0.0177 h⁻¹ and the Vsac [5, 11] was 38.02 L/kg. It also gave a fraction unbound ([6]; mean of three test concentrations, read-out: mean fu (fu,p, fraction unbound in plasma)) of 0.0005, a fraction unbound at 80 ng/ml ([6]; test concentration 80 ng/ml, read-out: fu (N=3)) of 0.0007 and a fraction unbound at 400 ng/ml ([6]; test concentration 400 ng/ml, read-out: fu (N=3)) of 0.0004. The fraction unbound at 4000 ng/ml ([6]; test concentration 4000 ng/ml, read-out: fu (N=3)) was 0.0004, the “AUC Obs.” value (CYP3A4 [7]; White healthy volunteers, fed, 20 mg SD, olverembatinib alone) was 125 h?ng/mL and the “AUC Obs.” value (CYP3A4 [7]; White healthy volunteers, fed, 40 mg SD, olverembatinib alone) was 302 h?ng/mL. For the same compound, the “AUC Obs.” value (CYP3A4 [7]; coadministration with itraconazole, healthy White volunteers) was 330 h?ng/mL, the “AUC Obs.” value (CYP3A4 [7]; coadministration with rifampicin, healthy White volunteers) was 73.0 h?ng/mL and the “AUC decrease after rifampicin administration” value (CYP3A4 [7]; human, in vivo) was 76%. For the same compound, the “AUC increase after itraconazole treatment” value (CYP3A4 [7]; human, in vivo, 200 mg) was 163%, the Cmax (CYP3A4 [7]; human, 20 mg, White healthy volunteers, fed, 20 mg SD, olverembatinib alone) was 5.26 ng/mL and the Cmax (CYP3A4 [7]; human, 40 mg, White healthy volunteers, fed, 40 mg SD, olverembatinib alone) was 12.7 ng/mL. For the same compound, the Cmax (CYP3A4 [7]; human, coadministration with itraconazole, healthy White volunteers) was 9.14 ng/mL, the Cmax (CYP3A4 [7]; human, coadministration with rifampicin, healthy White volunteers) was 4.54 ng/mL and the “mean conc (N=3)” value ([8]; blood H) was 43.5. For the same compound, the “mean conc (N=3)” value ([8]; blood L) was 0.395, the “mean conc (N=3)” value ([8]; blood M) was 4.01 and the “mean conc (N=3)” value ([8]; plasma H) was 45.9. For the same compound, the “mean conc (N=3)” value ([8]; plasma L) was 0.25 and the “mean conc (N=3)” value ([8]; plasma M) was 2.95.
